Entries after “also recorded” stand apart in the source; their conditions may differ.
Columns and labels:
[1] = tested on: Human PBMC; test: Cytokine production upon human PBMC stimulation (ORN complexed to DOTAP, 16 h, ELISA); assay type: cell-based; set-up: key to IFN-alpha / TNF-alpha: +: cytokine production; −: no cytokine production; conditions: for IFN-alpha / TNF-alpha: human PBMC stimulated for 16 h, supernatant ELISA
In short: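 Healthy-donor PBMCs were stimulated for 16 h with ORN complexed to DOTAP (25 μg/ml), titrated in 7 steps of 1/3 from 2 μM (to 0.9 nM). IFN-alpha and TNF-alpha in supernatants were measured by ELISA. Mean/max activity at 0.6 μM and EC50 came from 3-6 donors over two experiments.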

[2] = tested on: isolated pDC; test: IFN-alpha production upon isolated pDC stimulation; assay type: cell-based, human; conditions: 0.5 μM ORN complexed to 10 μg/ml DOTAP, 16 h
Description: (§1) FIG. 2 is a set of bar graphs depicting ORN induced cytokine production upon isolated pDC (FIG. 2a), monocytes (FIG. 2b) and mDC (FIG. 2c) stimulation. Cells were stimulated with 0.5 μM ORN complexed to 10 μg/ml DOTAP, 0.5 μM CpG ODN or DOTAP or media alone and IFN-alpha (FIG. 2a), TNF-alpha […] and IL-12p40 (FIG. 2c) were measured.
(§2) A similar assay testing different ORN sequences was performed using isolated pDC, monocytes and mDC stimulation. Cells were stimulated with 0.5 μM ORN complexed to 10 μg/ml DOTAP, 0.5 μM CpG ODN or DOTAP or media alone. After 16 h the supernatants were harvested and IFN-alpha, TNF-alpha and IL-12p40 levels were measured by ELISA.

[3] = tested on: isolated monocytes and mDC; test: TNF-alpha and IL-12p40 production upon isolated monocytes and mDC stimulation; assay type: cell-based, human; conditions: 0.5 μM ORN complexed to 10 μg/ml DOTAP, 16 h
Description: as §1, §2

[4] = tested on: CD123+ purified pDC; test: CD86 surface marker expression upon human pDC stimulation (FACS); assay type: cell-based; conditions: 1 μM ORN complexed to 25 μg/ml DOTAP, 16 h
Description: (§3) FIG. 10 is a series of graphs showing surface marker expression upon human pDC stimulation with AU-rich or GU-rich ORN. CD123+ purified pDC (FIGS. 10a and 10b) or isolated monocytes (FIG. 10c) were incubated with 1 μM ORN complexed to 25 μg/ml DOTAP or DOTAP alone (FIG. 10a) or indicated amounts of ORN complexed to DOTAP or DOTAP alone (FIGS. 10b-10c). After 16 h cells were harvested and stained with CD123, CD11c and HLA-DR antibodies (FIGS. 10a and 10b) or CD14 and CD19 (FIG. 10c). Cell surface marker activation was measured by CD86 (FIGS. 10a and 10b) or CD80 (FIG. 10c) expression. […] FIG. 10b is a graph illustrating that CD86 surface marker expression upon human pDC stimulation is dose-dependent.
(§4) CD123+ purified pDC (FIGS. 10a and 10b) or isolated monocytes (FIG. 10c) were incubated with 1 μM ORN complexed to 25 μg/ml DOTAP or DOTAP alone (FIG. 10a) or indicated amounts of ORN complexed to DOTAP or DOTAP alone (FIGS. 10b-10c). After 16 h cells were harvested and stained with CD123, CD11c and HLA-DR antibodies (FIGS. 10a and 10b) or CD14 and CD19 (FIG. 10c). […] This activation was determined to be dose-dependent (FIG. 10b).

[5] = tested on: CD14-positive cell; test: CD80 surface marker expression upon CD14-positive cell stimulation (FACS); assay type: cell-based; conditions: human PBMC (data not shown) and CD14-positive cells, ORN complexed to DOTAP, 16 h
Description: as §3, §4

[6] = tested on: Raw264.7 cells, J774 cells, purified mouse CD11c+ cells; test: Cytokine production by mouse cells in vitro (ELISA); assay type: cell-based; conditions: ORN complexed to DOTAP, 16 or 20 hours
Description: (§5) Cells used were mouse macrophage cell line Raw264.7 cells (FIG. 12a), J774 cells (FIG. 12b), purified mouse CD11c+ cells (sv129 mice) (FIGS. 12c-12h) and mouse cells in vivo. Cytokine concentration was evaluated by ELISA.
(§6) Raw264.7 cells (FIG. 12a), J774 cells (FIG. 12b) and purified CD11c+ cells (Milteny, magnetic bead labeling) were isolated from sv129 mice splenocytes (FIGS. 12c-12e) and were stimulated with indicated concentrations of ORN complexed to DOTAP (50 μg/ml and diluted with ORN), R-848 or DOTAP alone (50 μg/ml). After 16 hours (FIGS. 12a and 12b) or 20 hours (FIGS. 12c-12e) supernatants were harvested and used for TNF-alpha (FIGS. 12a and 12b), IL-12p40 (FIG. 12c), IFN-alpha (FIG. 12d) and IP-10 (FIG. 12e) ELISA. Data represent one individual from at least three experiments (FIGS. 12a and 12b) and mean of 3 mice (FIGS. 12c-12e). To measure the ability of AU-rich ORN to stimulate mouse cells in vivo, sv129 mice (n=5/group) were injected with the indicated amounts of ORN formulated with DOTAP (60, 20 or 6 μg/ml), and bled after 3 hours. IL-12p40 (FIG. 12f), IFN-alpha (FIG. 12g) and IP-10 (FIG. 12h) production was measured within whole blood by ELISA.

[7] = tested on: sv129 mice; test: Cytokine production in sv129 mice in vivo (whole blood ELISA, 3 hours); set-up: species or system mouse; conditions: ORN formulated with DOTAP, bled after 3 hours
Description: as §5, §6

Substance | IFN-alpha production upon PBMC stimulation (in words) ([1]; human PBMC) | IFN-alpha [1] | TNF-alpha [1] | IFN-alpha production upon pDC stimulation (in words) [2] | IL-12p40 production (in words) [3] | TNF-alpha production (in words) [3] | CD86 surface marker expression [4] | CD80 surface marker expression [5] | response of mouse macrophages/cells in vitro (TNF-alpha, IL-12p40, IFN-alpha, IP-10) [6] | response of mouse cells in vivo (IL-12p40, IFN-alpha, IP-10 in whole blood) [7]
U*U*A*U*U*A*U*U*A*U*U*A*U*U*A*U*U*A*U*U (UUAUUAUUAUUAUUAUUAUU; chemistry not fully specified) [SEQ ID NO: 13] | no IFN-alpha cytokine production | − | + | strongly reduced IFN-alpha production; also recorded: no IFN-alpha cytokine production | clear TNF-alpha and IL-12p40 production | clear TNF-alpha and IL-12p40 production | very little CD86 activation | no difference in CD80 surface marker expression | do not Respond | do not Respond
U*U*G*U*U*G*U*U*G*U*U*G*U*U*G*U*U*G*U*U (UUGUUGUUGUUGUUGUUGUU; listed as RNA, chemistry not fully specified) [SEQ ID NO: 21] |  | + | + |  | clear TNF-alpha and IL-12p40 production | clear TNF-alpha and IL-12p40 production | significant CD86 activation | no difference in CD80 surface marker expression |  | 
